ChEMBL document CHEMBL5500329, “Identification of dihydroquinolizinone derivatives with nitrogen heterocycle moieties as new anti-HBV agents” (Eur J Med Chem, 2024)

Tests used:
Hepatitis B virus [1] = experiment: Antiviral activity against Hepatitis B virus assessed as inhibition of HbsAg level; format: functional, organism-based
Hepatitis B virus [2] = experiment: Antiviral activity against Hepatitis B virus assessed as inhibition of HbeAg level; format: functional, organism-based
Hepatitis B virus [3] = experiment: Antiviral activity against Hepatitis B virus assessed as inhibition of HBV DNA production; format: functional, organism-based
HT-22 [4] = experiment: Cytotoxicity against mouse HT-22 cells assessed as reduction in cell viability at 10 uM; format: toxicity, cell-based; conditions: ht-22, 10 µM
HT-22 [5] = experiment: Cytotoxicity against mouse HT-22 cells assessed as reduction in cell viability at 30 uM; format: toxicity, cell-based; conditions: ht-22, 30 µM
[6] = Neurotoxicity in mouse HT-22 cells assessed as reduction in neurite length at 10 to 30 uM incubated for 24 to 48 hrs; format: toxicity, cell-based; conditions: ht-22, 30 µM, dose lower 10 µM, time lower 24 hrs, dose upper 30 µM, time upper 48 hrs
[7] = Neurotoxicity in PAPD5-knockout mouse HT-22 cells assessed as reduction in neurite length; format: toxicity, cell-based
[8] = Neurotoxicity in PAPD7-knockout mouse HT-22 cells assessed as reduction in neurite length; format: toxicity, cell-based
[9] = Half-life in mouse at 10 mg/kg, po administered as single dose; format: ADME, organism-based; conditions: in vivo
[10] = Tmax in mouse at 10 mg/kg, po administered as single dose; format: ADME, organism-based; conditions: in vivo
[11] = Cmax in mouse at 10 mg/kg, po administered as single dose; format: ADME, organism-based; conditions: in vivo
[12] = AUC (0 to infinity) in mouse at 10 mg/kg, po administered as single dose; format: ADME, organism-based; conditions: in vivo
[13] = MRT (0 to infinity) in mouse at 10 mg/kg, po administered as single dose; format: ADME, organism-based; conditions: in vivo
[14] = Cytotoxicity against mouse HT-22 cells assessed as cell viability at 30 uM relative to control; format: toxicity, cell-based; conditions: read-out: Activity
[15] = Neurotoxicity in mouse HT-22 cells assessed as reduction in neurite length at 10 uM; format: toxicity, cell-based; conditions: ht-22, 10 µM
[16] = Neurotoxicity in mouse HT-22 cells assessed as reduction in neurite length at 30 uM incubated for 48 hrs; format: toxicity, cell-based; conditions: ht-22, 48 h
[17] = Neurotoxicity in mouse DRG neuron assessed as reduction in neurite length at 10 uM incubated for 24 hrs; format: toxicity, cell-based

SMILES	IC50 (Hepatitis B virus [1]) [nM]	IC50 (Hepatitis B virus [2]) [nM]	IC50 (Hepatitis B virus [3]) [nM]	further results
COCCCOc1cc2c(cc1OC)-c1cc(=O)c(C(=O)O)cn1[C@H](C(C)C)C2	5	91	86	Activity (HT-22 [4]): Non-Toxic; Activity (HT-22 [5]): Non-Toxic; Activity [6]: Toxic; Activity [7]: Toxic; Activity [8]: Toxic; half-life [9]: 2.39 h; Tmax [10]: 0.42 h; Cmax [11]: 6630 ng/mL; AUC(0-inf) [12]: 10800 ng·h/mL; MRT inf [13]: 1.66 h
COc1cc2c(cc1OC[C@@H]1CCCO1)C[C@@H](C(C)C)n1cc(C(=O)O)c(=O)cc1-2	0.6	0.6	0.6	–
COc1cc2c(cc1N1CCC3(C1)OCCO3)CC(C(C)C)n1cc(C(=O)O)c(=O)cc1-2 (stereo not drawn)	1.8	38	7.6	–
COc1cc2c(cc1OCCCN1CCC3(C1)OCCO3)C[C@@H](C(C)C)n1cc(C(=O)O)c(=O)cc1-2	23	195	–	Activity (HT-22 [4]): Non-Toxic; viability at 30 µM [14]: 74.9%
COc1cc2c(cc1OCCCN1CCC3(CCCO3)CC1)CC(C(C)C)n1cc(C(=O)O)c(=O)cc1-2 (stereo not drawn)	62	> 1000	217	–
COc1cc2c(cc1N1CCOCC1)CC(C(C)C)n1cc(C(=O)O)c(=O)cc1-2 (stereo not drawn)	8	99	8	–
COc1cc2c(cc1N1CCC3(C1)OCCO3)C[C@H](C(C)C)n1cc(C(=O)O)c(=O)cc1-2	126	668	–	–
COc1cc2c(cc1OCCCN1CCC3(CCOC3)C1)CC(C(C)C)n1cc(C(=O)O)c(=O)cc1-2 (stereo not drawn)	193	> 1000	31	–
COc1cc2c(cc1N1CCC3(CCOCC3)C1)C[C@@H](C(C)C)n1cc(C(=O)O)c(=O)cc1-2	5	71	–	Activity (HT-22 [4]): Non-Toxic; Activity (HT-22 [5]): Non-Toxic
COc1cc2c(cc1N1CCC3(CCCO3)CC1)CC(C(C)C)n1cc(C(=O)O)c(=O)cc1-2 (stereo not drawn)	27	295	40	–
COc1cc2c(cc1OC1CCC3(CCOCC3)CC1)CC(C(C)C)n1cc(C(=O)O)c(=O)cc1-2 (stereo not drawn)	151	47	38	–
COc1cc2c(cc1N1CC3COCC3C1)CC(C(C)C)n1cc(C(=O)O)c(=O)cc1-2 (stereo not drawn)	14	236	64	–

Continued, in another order:

IC50 (Hepatitis B virus [1]) [nM]	IC50 (Hepatitis B virus [2]) [nM]	IC50 (Hepatitis B virus [3]) [nM]	SMILES	further results
0.6	5	< 1.6	COc1cc2c(cc1N1CCC3(CCOCC3)C1)CC(C(C)C)n1cc(C(=O)O)c(=O)cc1-2 (stereo not drawn)	–
33	319	47.3	COc1cc2c(cc1OCCCN1CCC3(C1)OCCO3)CC(C(C)C)n1cc(C(=O)O)c(=O)cc1-2 (stereo not drawn)	–
100	875	–	COc1cc2c(cc1N1CCC3(CCOCC3)C1)C[C@H](C(C)C)n1cc(C(=O)O)c(=O)cc1-2	–
5	62	332	COc1cc2c(cc1N1CCC3(CCOC3)C1)CC(C(C)C)n1cc(C(=O)O)c(=O)cc1-2 (stereo not drawn)	–
16	111	50	COc1cc2c(cc1N1CCC3(CCN(C(=O)OC(C)(C)C)CC3)C1)CC(C(C)C)n1cc(C(=O)O)c(=O)cc1-2 (stereo not drawn)	–
1240	> 1000	405	COc1cc2c(cc1N1CCC(C(=O)O)CC1)CC(C(C)C)n1cc(C(=O)O)c(=O)cc1-2 (stereo not drawn)	–
30	204	80	COc1cc2c(cc1N1CCC(C(F)(F)F)CC1)CC(C(C)C)n1cc(C(=O)O)c(=O)cc1-2 (stereo not drawn)	–
12	87	0.5	COc1cc2c(cc1N1CCC3(CC1)OCCO3)CC(C(C)C)n1cc(C(=O)O)c(=O)cc1-2 (stereo not drawn)	–
4	84	–	COc1cc2c(cc1N1CCC3(C1)OCCO3)C[C@@H](C(C)C)n1cc(C(=O)O)c(=O)cc1-2	Activity (HT-22 [4]): Non-Toxic; Activity (HT-22 [5]): Non-Toxic
189	856	–	COc1cc2c(cc1OCCCN1CCC3(C1)OCCO3)C[C@H](C(C)C)n1cc(C(=O)O)c(=O)cc1-2	–
41	> 1000	300	COc1cc2c(cc1N1CCC(O)CC1)CC(C(C)C)n1cc(C(=O)O)c(=O)cc1-2 (stereo not drawn)	–
599	> 1000	–	COc1cc2c(cc1N1CCOCC1)C[C@H](C(C)C)n1cc(C(=O)O)c(=O)cc1-2	–
23	287	–	COc1cc2c(cc1N1CCOCC1)C[C@@H](C(C)C)n1cc(C(=O)O)c(=O)cc1-2	Activity (HT-22 [4]): Non-Toxic; Activity (HT-22 [5]): Non-Toxic; Activity [15]: Non-Toxic; Activity [16]: Non-Toxic; Activity [17]: Non-Toxic; half-life [9]: 2.09 h; Tmax [10]: 0.58 h; Cmax [11]: 7620 ng/mL; AUC(0-inf) [12]: 23400 ng·h/mL; MRT inf [13]: 2.69 h
